These results are taken from BindingDB's records for doi:10.7270/Q2DV1H9K (University of Pittsburgh, 2008).

A value given as a limit tells only on which side of the number the result lay.

Cyclin-dependent kinase 7, sequence (P50613 whole entry): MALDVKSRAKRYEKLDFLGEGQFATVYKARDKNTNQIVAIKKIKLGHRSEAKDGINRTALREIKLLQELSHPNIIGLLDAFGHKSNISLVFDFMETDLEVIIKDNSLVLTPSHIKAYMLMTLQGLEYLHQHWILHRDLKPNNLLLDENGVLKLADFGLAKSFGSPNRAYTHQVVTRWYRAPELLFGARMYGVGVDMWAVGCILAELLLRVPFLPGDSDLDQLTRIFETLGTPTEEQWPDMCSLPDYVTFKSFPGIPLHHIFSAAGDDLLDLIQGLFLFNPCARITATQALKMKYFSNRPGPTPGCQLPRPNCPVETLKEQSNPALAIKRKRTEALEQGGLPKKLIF

This assay concerns the target Cyclin-dependent kinase 7 (Homo sapiens, UniProt P50613). Kind of assay: off-target CDK7 activity blockade – biochemical, 57K library addition, counter-screen for PKD inhibitor project, dose response (AID 1380).
Molecule `O=[N+]([O-])c1ccc(Nc2c3ccccc3nc3ccccc23)cc1` [MLS000723809] had a concentration for half-maximal inhibition (IC50) greater than 100 µM.

`CC(N=Nc1ncc(Cl)cc1Cl)c1ccccn1` (stereo not drawn) [3,5-dichloro-N-(1-pyridin-2-ylethylideneamino)pyridin-2-amine]: the half-maximal inhibitory concentration (IC50) is greater than 100 µM.

Molecule `CCCc1cc(=O)[nH]c(SCCCCN2C(=O)c3ccccc3C2=O)n1` [2-[4-[(4-oxidanylidene-6-propyl-1H-pyrimidin-2-yl)sulfanyl]butyl]isoindole-1,3-dione] returned an IC50 greater than 100 µM.

As to `O=C(Nc1ccccc1C(=O)N1CCCC1)C1COc2ccccc2O1` (stereo not drawn) [SMR000287780], the IC50 was greater than 100 µM.

Molecule `CSc1ccccc1C(=O)NCc1ccc(F)cc1` yielded a 50% inhibitory concentration (IC50) greater than 100 µM.

`COc1ccc(CNC(=O)C2Cc3ccccc3CN2C(=O)c2ccco2)cc1` (stereo not drawn) [SMR000343177] displayed a half-inhibitory concentration (IC50) greater than 100 µM.

The molecule `O=C(O)c1cc(C(=O)C2CCCCC2)c[nH]1` [4-(cyclohexylcarbonyl)-1H-pyrrole-2-carboxylic acid] displayed an IC50 greater than 100 µM.

On to `O=C(NNC1=Nc2cccc3cccc1c23)c1ccc(Br)cc1` [SMR000260645], for which the IC50 was greater than 100 µM.

`COC(=O)c1c(NC(=O)C2C3CCC(C3)C2C(=O)O)sc2c1CCCCC2` (stereo not drawn) [SMR000298221] registered an IC50 greater than 100 µM.

`COc1ccc(Cn2c(=O)[nH]c3cc(C(=O)NC4CCCC4)ccc3c2=O)cc1` [MLS000730065] showed an IC50 greater than 100 µM.

In turn, `CCOC(=O)c1sc(=NC(=O)CCS(=O)(=O)c2ccccc2)n(C)c1C` [2-[3-(benzenesulfonyl)-1-oxopropyl]imino-3,4-dimethyl-5-thiazolecarboxylic acid ethyl ester] showed a half-inhibitory concentration (IC50) greater than 100 µM.

In turn, `Cc1cc(NC(=O)CCC(=O)N(Cc2ccco2)C(C(=O)NCC2CCCO2)c2ccncc2)no1` (stereo not drawn) [N'-(furan-2-ylmethyl)-N-(5-methyl-1,2-oxazol-3-yl)-N'-[2-oxidanylidene-2-(oxolan-2-ylmethylamino)-1-pyridin-4-yl-ethyl]butanediamide] returned a half-inhibitory concentration (IC50) greater than 100 µM.

The molecule `CC1Cc2ccccc2N1c1ncnc(N)c1[N+](=O)[O-]` (stereo not drawn) [6-(2-methyl-2,3-dihydro-1H-indol-1-yl)-5-nitro-4-pyrimidinamine] gave a concentration for half-maximal inhibition (IC50) of 8.22 µM.

The molecule `O=C1CSCN1c1cc(Cl)ccc1Cl` [3-(2,5-dichlorophenyl)-1,3-thiazolan-4-one] returned an IC50 greater than 100 µM.

In turn, `Cc1c(C#N)c(N)nc(Cl)c1C#N` [2-amino-6-chloro-4-methyl-3,5-pyridinedicarbonitrile] gave a half-maximal inhibitory concentration (IC50) greater than 100 µM.

With `O=C(CSc1ccncc1)Nc1ccc2ccccc2c1` [N-naphthalen-2-yl-2-pyridin-4-ylsulfanylacetamide], the concentration for half-maximal inhibition (IC50) was greater than 100 µM.

Regarding `O=C(CSc1ccc2nnc(-c3cccnc3)n2n1)c1ccccc1` [1-phenyl-2-[[3-(3-pyridinyl)-[1,2,4]triazolo[4,3-b]pyridazin-6-yl]thio]ethanone], the IC50 is greater than 100 µM.

Turning to `Cn1cccc1C(=O)NC(=O)COC(=O)c1cc(S(=O)(=O)N2CCCCC2)ccc1Cl` [[2-[(1-methylpyrrol-2-yl)carbonylamino]-2-oxidanylidene-ethyl] 2-chloranyl-5-piperidin-1-ylsulfonyl-benzoate], the IC50 was greater than 100 µM.
